From PubChem BioAssay AID1963450 (Molecular Pharmacology Branch, DTP, NCI, 2024)

System: 556581-035-R-J1-PDC complex spheroid growth
Assay: Anticancer human tumor 556581-035-R-J1-PDC patient-derived ovarian carcinoma cell line growth inhibition [Asc]
Details: for IC50: curve of first compound; for viability, T/C: stronger effect = lower value; active = viability on the fitted dose curve at most 10% of control; inactive = the rest
Summary of the method: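 Complex solid-tumor spheroids incorporating human endothelial and mesenchymal stem cells received single agents or combinations over half-log dilution ranges anchored to clinical Cmax.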
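Also: spheroids exposed to agents for 7 days before viability read.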

Cc1nc(N2CCC3(CC2)COC(C)C3N)c(CO)nc1Sc1ccnc(N)c1Cl (centres undefined) + CCN1C(C(=O)NC23CCC(C(=O)O)(CC2)CC3)C(c2cccc(Cl)c2F)C2(C(=O)Nc3cc(Cl)ccc32)C12CCCCC2
2240 nM: IC50 (second compound 0.03 µM)
2430 nM: IC50 (second compound 0.949 µM)
847 nM: IC50 (second compound 3 µM)
> 3000 nM: IC50 (second compound 0.3 µM)
1530 nM: IC50 (second compound 0.0949 µM)
inactive: viability, T/C (second compound 0.03 µM, first compound 0.00949 µM) 84.7% | viability, T/C (second compound 0.03 µM, first compound 0.03 µM) 82.1% | viability, T/C (second compound 0.03 µM, first compound 0.0949 µM) 74% | viability, T/C (second compound 0.03 µM, first compound 0.3 µM) 62.4% | viability, T/C (second compound 0.03 µM, first compound 0.949 µM) 64.3% | viability, T/C (second compound 0.03 µM, first compound 3 µM) 45.1% | viability, T/C (second compound 0.0949 µM, first compound 0.00949 µM) 88.9% | viability, T/C (second compound 0.0949 µM, first compound 0.03 µM) 91.2% | viability, T/C (second compound 0.0949 µM, first compound 0.0949 µM) 88.1% | viability, T/C (second compound 0.0949 µM, first compound 0.3 µM) 66.5% | viability, T/C (second compound 0.0949 µM, first compound 0.949 µM) 60.6% | viability, T/C (second compound 0.0949 µM, first compound 3 µM) 39.4% | viability, T/C (second compound 0.3 µM, first compound 0.00949 µM) 85.7% | viability, T/C (second compound 0.3 µM, first compound 0.03 µM) 95.7% | viability, T/C (second compound 0.3 µM, first compound 0.0949 µM) 72.8% | viability, T/C (second compound 0.3 µM, first compound 0.3 µM) 73.7% | viability, T/C (second compound 0.3 µM, first compound 0.949 µM) 49.5% | viability, T/C (second compound 0.3 µM, first compound 3 µM) 58.9% | viability, T/C (second compound 0.949 µM, first compound 0.00949 µM) 93.4% | viability, T/C (second compound 0.949 µM, first compound 0.03 µM) 82.3% | viability, T/C (second compound 0.949 µM, first compound 0.0949 µM) 80.9% | viability, T/C (second compound 0.949 µM, first compound 0.3 µM) 68.4% | viability, T/C (second compound 0.949 µM, first compound 0.949 µM) 54.7% | viability, T/C (second compound 0.949 µM, first compound 3 µM) 49.4% | viability, T/C (second compound 3 µM, first compound 0.00949 µM) 88.4% | viability, T/C (second compound 3 µM, first compound 0.03 µM) 78.7% | viability, T/C (second compound 3 µM, first compound 0.0949 µM) 79.7% | viability, T/C (second compound 3 µM, first compound 0.3 µM) 60.8% | viability, T/C (second compound 3 µM, first compound 0.949 µM) 45.7% | viability, T/C (second compound 3 µM, first compound 3 µM) 50.6%

C#Cc1c(F)ccc2cc(O)cc(-c3ncc4c(N5CC6CCC(C5)N6)nc(OCC56CCCN5CC(F)C6)nc4c3F)c12 (centres undefined) + CNC(C)C(=O)NC1CN(S(=O)(=O)c2cccc(S(=O)(=O)N3CCC4CCC(C(=O)NC(c5ccccc5)c5ccccc5)N4C(=O)C(NC(=O)C(C)NC)C3)c2)CCC2CCC(C(=O)NC(c3ccccc3)c3ccccc3)N2C1=O
inactive: viability, T/C (second compound 0.00316 µM, first compound 0.0316 µM) 101% | viability, T/C (second compound 0.00316 µM, first compound 0.1 µM) 103% | viability, T/C (second compound 0.00316 µM, first compound 0.316 µM) 103% | viability, T/C (second compound 0.00316 µM, first compound 1 µM) 99.6% | viability, T/C (second compound 0.00316 µM, first compound 3.16 µM) 98% | viability, T/C (second compound 0.00316 µM, first compound 10 µM) 86.8% | viability, T/C (second compound 0.01 µM, first compound 0.0316 µM) 105% | viability, T/C (second compound 0.01 µM, first compound 0.1 µM) 96.6% | viability, T/C (second compound 0.01 µM, first compound 0.316 µM) 100% | viability, T/C (second compound 0.01 µM, first compound 1 µM) 107% | viability, T/C (second compound 0.01 µM, first compound 3.16 µM) 87.6% | viability, T/C (second compound 0.01 µM, first compound 10 µM) 71% | viability, T/C (second compound 0.0316 µM, first compound 0.0316 µM) 96.7% | viability, T/C (second compound 0.0316 µM, first compound 0.1 µM) 95.9% | viability, T/C (second compound 0.0316 µM, first compound 0.316 µM) 88.5% | viability, T/C (second compound 0.0316 µM, first compound 1 µM) 87.7% | viability, T/C (second compound 0.0316 µM, first compound 3.16 µM) 87% | viability, T/C (second compound 0.0316 µM, first compound 10 µM) 60.5% | viability, T/C (second compound 0.1 µM, first compound 0.0316 µM) 92% | viability, T/C (second compound 0.1 µM, first compound 0.1 µM) 88.8% | viability, T/C (second compound 0.1 µM, first compound 0.316 µM) 76.8% | viability, T/C (second compound 0.1 µM, first compound 1 µM) 78% | viability, T/C (second compound 0.1 µM, first compound 3.16 µM) 77.9% | viability, T/C (second compound 0.1 µM, first compound 10 µM) 62% | viability, T/C (second compound 0.316 µM, first compound 0.0316 µM) 82.6% | viability, T/C (second compound 0.316 µM, first compound 0.1 µM) 65.4% | viability, T/C (second compound 0.316 µM, first compound 0.316 µM) 75.3% | viability, T/C (second compound 0.316 µM, first compound 1 µM) 66.4% | viability, T/C (second compound 0.316 µM, first compound 3.16 µM) 62.8% | viability, T/C (second compound 0.316 µM, first compound 10 µM) 44% | viability, T/C (second compound 1 µM, first compound 0.0316 µM) 65.2% | viability, T/C (second compound 1 µM, first compound 0.1 µM) 64.3% | viability, T/C (second compound 1 µM, first compound 0.316 µM) 65.6% | viability, T/C (second compound 1 µM, first compound 1 µM) 75.4% | viability, T/C (second compound 1 µM, first compound 3.16 µM) 57.9% | viability, T/C (second compound 1 µM, first compound 10 µM) 36.3%
5290 nM: IC50 (second compound 1 µM)
> 10000 nM: IC50 (second compound 0.00316 µM) | IC50 (second compound 0.01 µM) | IC50 (second compound 0.0316 µM) | IC50 (second compound 0.1 µM)
6870 nM: IC50 (second compound 0.316 µM)

Cc1nc(N2CCC3(CC2)COC(C)C3N)c(CO)nc1Sc1ccnc(N)c1Cl (centres undefined) + CNC(C)C(=O)NC1CN(S(=O)(=O)c2cccc(S(=O)(=O)N3CCC4CCC(C(=O)NC(c5ccccc5)c5ccccc5)N4C(=O)C(NC(=O)C(C)NC)C3)c2)CCC2CCC(C(=O)NC(c3ccccc3)c3ccccc3)N2C1=O
278 nM: IC50 (second compound 0.316 µM)
1210 nM: IC50 (second compound 0.1 µM)
inactive: viability, T/C (second compound 0.00316 µM, first compound 0.00949 µM) 107% | viability, T/C (second compound 0.00316 µM, first compound 0.03 µM) 95.9% | viability, T/C (second compound 0.00316 µM, first compound 0.0949 µM) 90.2% | viability, T/C (second compound 0.00316 µM, first compound 0.3 µM) 79.4% | viability, T/C (second compound 0.00316 µM, first compound 0.949 µM) 80% | viability, T/C (second compound 0.00316 µM, first compound 3 µM) 49.1% | viability, T/C (second compound 0.01 µM, first compound 0.00949 µM) 107% | viability, T/C (second compound 0.01 µM, first compound 0.03 µM) 94.5% | viability, T/C (second compound 0.01 µM, first compound 0.0949 µM) 76% | viability, T/C (second compound 0.01 µM, first compound 0.3 µM) 73.8% | viability, T/C (second compound 0.01 µM, first compound 0.949 µM) 64.9% | viability, T/C (second compound 0.01 µM, first compound 3 µM) 53.2% | viability, T/C (second compound 0.0316 µM, first compound 0.00949 µM) 91.4% | viability, T/C (second compound 0.0316 µM, first compound 0.03 µM) 81.8% | viability, T/C (second compound 0.0316 µM, first compound 0.0949 µM) 75.3% | viability, T/C (second compound 0.0316 µM, first compound 0.3 µM) 58.5% | viability, T/C (second compound 0.0316 µM, first compound 0.949 µM) 59% | viability, T/C (second compound 0.0316 µM, first compound 3 µM) 45.9% | viability, T/C (second compound 0.1 µM, first compound 0.00949 µM) 86.3% | viability, T/C (second compound 0.1 µM, first compound 0.03 µM) 78.9% | viability, T/C (second compound 0.1 µM, first compound 0.0949 µM) 71.8% | viability, T/C (second compound 0.1 µM, first compound 0.3 µM) 55.4% | viability, T/C (second compound 0.1 µM, first compound 0.949 µM) 58.4% | viability, T/C (second compound 0.1 µM, first compound 3 µM) 40.4% | viability, T/C (second compound 0.316 µM, first compound 0.00949 µM) 74.8% | viability, T/C (second compound 0.316 µM, first compound 0.03 µM) 63.4% | viability, T/C (second compound 0.316 µM, first compound 0.0949 µM) 59.4% | viability, T/C (second compound 0.316 µM, first compound 0.3 µM) 46.2% | viability, T/C (second compound 0.316 µM, first compound 0.949 µM) 46.3% | viability, T/C (second compound 0.316 µM, first compound 3 µM) 38.3% | viability, T/C (second compound 1 µM, first compound 0.00949 µM) 61.2% | viability, T/C (second compound 1 µM, first compound 0.03 µM) 61.9% | viability, T/C (second compound 1 µM, first compound 0.0949 µM) 51% | viability, T/C (second compound 1 µM, first compound 0.3 µM) 46.8% | viability, T/C (second compound 1 µM, first compound 0.949 µM) 40.8% | viability, T/C (second compound 1 µM, first compound 3 µM) 28.9%
> 3000 nM: IC50 (second compound 0.00316 µM) | IC50 (second compound 0.01 µM)
1960 nM: IC50 (second compound 0.0316 µM)
184 nM: IC50 (second compound 1 µM)
